Results from US20140107568A1, “METHOD OF DETERMINING AN INJECTED DOSE BASED ON A KNOWN ORAL DOSE” (ANTARES PHARMA, INC., priority 2012, published 2014).

Source text: An algorithm was developed to correlate a known oral dose of methotrexate to a jet injector dose. Table 1 illustrates the calculated correlation between oral doses and needle-assisted jet injector doses of methotrexate. The second column illustrates the precise subcutaneous dose calculated based on the algorithm, described in detail below. The third column represents the administrable dose, based on commercially available doses, closest in value to the precise calculated dose.
Based on the data set forth in table 1, a line equation of y=mx+b was developed to correlate an oral dose of methotrexate to an equivalent dose for use with a jet injector. In the present equation, illustrated by the graph shown in FIG. 1, the slope, m, was determined to be 0.6101 and a y-intercept, b, to be 2.9274. The correlation coefficient of the line, R^2, is 0.9594.

Structure (SMILES): CN(Cc1cnc2nc(N)nc(N)c2n1)c1ccc(C(=O)N[C@@H](CCC(=O)O)C(=O)O)cc1 [methotrexate]
- slope, m, of line equation y=mx+b correlating oral dose to equivalent jet injector dose: 0.6101
- y-intercept, b, of line equation y=mx+b correlating oral dose to equivalent jet injector dose: 2.9274
